Our source for the IC50 and inhibition values is patent US8134015B2, “Compound inhibiting in vivo phosphorous transport and medicine containing the same” (Kyowa Hakko Kirin Co., Ltd., priority 2003, dated 2012).

The first assay concerns the target T1, rat NaPi-2b (Rattus norvegicus, UniProt Q9JJ09).
T1 construct: expressed in transfected cells; host or cells: Xenopus oocytes injected with cRNA
T1 sequence (Q9JJ09 1-695): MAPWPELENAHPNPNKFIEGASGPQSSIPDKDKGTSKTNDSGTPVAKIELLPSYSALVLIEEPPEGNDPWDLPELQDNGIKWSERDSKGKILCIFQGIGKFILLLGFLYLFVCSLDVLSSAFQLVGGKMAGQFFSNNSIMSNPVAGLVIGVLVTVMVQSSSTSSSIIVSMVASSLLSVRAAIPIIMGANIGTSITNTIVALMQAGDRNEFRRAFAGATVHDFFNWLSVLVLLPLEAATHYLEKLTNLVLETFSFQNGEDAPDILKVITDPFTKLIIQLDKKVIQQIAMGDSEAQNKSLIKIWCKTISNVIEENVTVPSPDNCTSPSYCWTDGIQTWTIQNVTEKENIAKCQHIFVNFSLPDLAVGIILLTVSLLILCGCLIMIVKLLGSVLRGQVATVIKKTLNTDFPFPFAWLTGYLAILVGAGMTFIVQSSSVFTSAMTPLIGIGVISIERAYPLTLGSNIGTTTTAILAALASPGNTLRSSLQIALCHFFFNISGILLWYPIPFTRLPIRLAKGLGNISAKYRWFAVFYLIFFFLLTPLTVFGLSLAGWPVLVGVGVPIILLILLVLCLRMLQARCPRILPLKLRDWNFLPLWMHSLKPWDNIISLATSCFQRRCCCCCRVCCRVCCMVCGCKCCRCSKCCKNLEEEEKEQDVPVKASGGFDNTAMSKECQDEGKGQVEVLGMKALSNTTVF
Put plainly: Sodium-dependent phosphate uptake of Xenopus oocytes which expressed NaPi-2b (32P). It is filed as cell-based. Conditions: Xenopus oocytes expressing rat NaPi-2b, 32P radioactive phosphorus; read-out: IC50 (phosphate uptake inhibitory activity). The gist of the method:
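Percent inhibition at 300 μM and 100 μM comes from the same inhibition curve of 32P uptake. Assay used oocytes expressing rat NaPi-2b after 2 days of culture.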
The term IC50 denotes the midpoint of a concentration-inhibition curve. Take `Cc1ccc(/C=N/NC(=O)c2c(C)csc2NC(=O)c2cccc(CN3CCC(O)CC3)c2)cc1` [Compound 594, 3-(4-Hydroxy-piperidin-1-ylmethyl)-N-[4-methyl-3-(4-methyl-benzylidene-hydrazinocarbonyl)-thiophen-2-yl]-benzamide]: the IC50 stood at 3.6 µM.
Take `CC(O)CN(Cc1cccc(C(=O)Nc2sc3ccccc3c2C(=O)N/N=C/c2ccc(Cl)c(C(F)(F)F)c2)c1)CC(C)O` (stereo not shown) [Compound 796, 3-{[Bis-(2-hydroxy-propyl)-amino]-methyl}-N-[3-(4-chloro-3-trifluoromethyl-benzylidene-hydrazinocarbonyl)-benzo[b]thiophen-2-yl]-benzamide]: the IC50 came to 0.35 µM.
Still for that read-out and setting: as for `O=C(Nc1ccc(Cl)cc1C(=O)N/N=C/c1ccc(F)cc1)c1cccc(CSc2nc[nH]n2)c1` [Compound 390, N-[4-Chloro-2-(4-fluoro-benzylidene-hydrazinocarbonyl)-phenyl]-3-(1H-[1,2,4]triazol-3-ylsulfanylmethyl)-benzamide], the figure is 0.45 µM; as for `O=C(Nc1ccc(Br)cc1C(=O)N/N=C/c1cccc(F)c1)c1cccc(C[S+]([O-])c2nc[nH]n2)c1` (stereo not shown) [Compound 341, N-[4-Bromo-2-(3-fluoro-benzylidene-hydrazinocarbonyl)-phenyl]-3-(1H-[1,2,4]triazole-3-sulfinylmethyl)-benzamide], below 3 µM; as for `COc1cccc(/C=N/NC(=O)c2cc(Cl)ccc2NC(=O)c2cccc(CN3CCC(N4CCCCC4)CC3)c2)c1` [Compound 374, 3-[1,4′]Bipiperidinyl-1′-ylmethyl-N-[4-chloro-2-(3-methoxy-benzylidene-hydrazinocarbonyl)-phenyl]-benzamide], 9.25 µM.
In the case of `CCN(CC)CCN(C)Cc1cccc(C(=O)Nc2ccc(Cl)cc2C(=O)N/N=C/c2ccc(OCCCN(C)C)cc2)c1` [Compound 999, N-{4-Chloro-2-[4-(3-dimethylamino-propoxy)-benzylidene-hydrazinocarbonyl]-phenyl}-3-{[(2-diethylamino-ethyl)-methyl-amino]-methyl}-benzamide], the IC50 is 58.2 µM.
In the case of `Cc1cccc(/C=N/NC(=O)c2cscc2NC(=O)c2cccc(CN(CC(C)O)CC(C)O)c2)c1` (stereo not shown) [Compound 975, 3-{[Bis-(2-hydroxy-propyl)-amino]-methyl}-N-[4-(3-methyl-benzylidene-hydrazinocarbonyl)-thiophen-3-yl]-benzamide], the IC50 is 17.4 µM.
Same read-out and setting: in the case of `O=C(Nc1ccc(OCCN2CCCCC2)cc1C(=O)N/N=C/c1ccc(Cl)c(C(F)(F)F)c1)c1cccc(CSCCO)c1` [Compound 1044, N-[2-(4-Chloro-3-trifluoromethyl-benzylidene-hydrazinocarbonyl)-4-(2-piperidin-1-yl-ethoxy)-phenyl]-3-(2-hydroxy-ethylsulfanylmethyl)-benzamide] it was 2.13 µM.
Turning to `COc1ccc(C(=O)Nc2cc(Cl)ccc2C(=O)N/N=C/c2cccc(C)c2)cc1OC` [Compound 73, N-[5-Chloro-2-(3-methyl-benzylidene-hydrazinocarbonyl)-phenyl]-3,4-dimethoxy-benzamide], the IC50 came to 1.75 µM.
Still for that read-out and setting: as for `COc1ccc(/C(C)=N/NC(=O)c2cc(Br)ccc2NC(=O)c2cccc(CN(CC(C)O)CC(C)O)c2)cc1` (stereo not shown) [Compound 997, 3-{[Bis-(2-hydroxy-propyl)-amino]-methyl}-N-{4-bromo-2-[1-(4-methoxy-phenyl)-ethylidene-hydrazinocarbonyl]-phenyl}-benzamide], the figure is 7.88 µM.
For the compound `COc1ccc(C(=O)Nc2ccc(I)cc2C(=O)N/N=C/c2cccc(C)c2)cc1OC` [Compound 206, N-[4-Iodo-2-(3-methyl-benzylidene-hydrazinocarbonyl)-phenyl]-3,4-dimethoxy-benzamide], the IC50 is below 3 µM.
As to `CCN(CC)CCN(C)Cc1cccc(C(=O)Nc2ccc(Cl)cc2C(=O)N/N=C/c2ccc(OC)cc2)c1` [Compound 386, N-[4-Chloro-2-(4-methoxy-benzylidene-hydrazinocarbonyl)-phenyl]-3-{[(2-diethylamino-ethyl)-methyl-amino]-methyl}-benzamide], the IC50 is below 3 µM.
On the same count and under the same terms, in the case of `O=C(Nc1ccc(Cl)cc1C(=O)N/N=C/C=C/c1ccccc1)c1cccnc1` [Compound 348, N-[4-Chloro-2-(3-phenyl-allylidene-hydrazinocarbonyl)-phenyl]-nicotinamide] it was 16.6 µM.
On to `COc1ccc(/C=N/NC(=O)c2c(C)csc2NC(=O)c2cccc(CN(C)C)c2)cc1` [Compound 825, 3-Dimethylaminomethyl-N-[3-(4-methoxy-benzylidene-hydrazinocarbonyl)-4-methyl-thiophen-2-yl]-benzamide], for which the IC50 was found to be 4.52 µM.
For `Cc1ccc(/C=N/NC(=O)c2ccsc2NC(=O)c2cccc(CSCCCO)c2)cc1C` [Compound 658, N-[3-(3,4-Dimethyl-benzylidene-hydrazinocarbonyl)-thiophen-2-yl]-3-(3-hydroxy-propylsulfanylmethyl)-benzamide], the IC50 was below 3 µM.
Take `COc1cc(/C=N/NC(=O)c2cc(N3CCOCC3)ccc2NC(=O)c2ccc(OC)c(OC)c2)ccc1O` [Compound 940, N-[2-(4-Hydroxy-3-methoxy-benzylidene-hydrazinocarbonyl)-4-morpholin-4-yl-phenyl]-3,4-dimethoxy-benzamide]: the IC50 was 30.6 µM.
As for `Cc1ccc(/C=N/NC(=O)c2c(NC(=O)c3cccc(CN4CCC(CO)CC4)c3)sc3ccccc23)cc1C` [Compound 798, N-[3-(3,4-Dimethyl-benzylidene-hydrazinocarbonyl)-benzo[b]thiophen-2-yl]-3-(4-hydroxymethyl-piperidin-1-ylmethyl)-benzamide], the IC50 amounted to 3.62 µM.
Consider `Cc1ccc(/C=N/NC(=O)c2c(NC(=O)c3cccc(CN4CCC(N5CCCCC5)CC4)c3)sc3c2CCCC3)cc1` [Compound 616, 3-[1,4′]Bipiperidinyl-1′-ylmethyl-N-[3-(4-methyl-benzylidene-hydrazinocarbonyl)-4,5,6,7-tetrahydro-benzo[b]thiophen-2-yl]-benzamide], for which the IC50 turned out to be 13.9 µM.
`O=C(Nc1ccc(Br)cc1C(=O)N/N=C/c1ccc(Cl)c(C(F)(F)F)c1)c1cccc(C[S+]([O-])CCO)c1` (stereo not shown) [Compound 679, N-[4-Bromo-2-(4-chloro-3-trifluoromethyl-benzylidene-hydrazinocarbonyl)-phenyl]-3-(2-hydroxy-ethanesulfinylmethyl)-benzamide]: the IC50 is below 3 µM.
Regarding `O=C(Nc1ccc(Br)cc1C(=O)N/N=C/c1ccc(F)cc1)c1ccc(CN2CCC(N3CCCCC3)CC2)cc1` [Compound 311, 4-[1,4′]Bipiperidinyl-1′-ylmethyl-N-[4-bromo-2-(4-fluoro-benzylidene-hydrazinocarbonyl)-phenyl]-benzamide], the IC50 is 7.78 µM.
On to `O=C(Nc1ccc(N2CCCCC2)cc1C(=O)N/N=C/c1cccc(F)c1)c1cccc(CN2CCN(CCO)CC2)c1` [Compound 867, N-[2-(3-Fluoro-benzylidene-hydrazinocarbonyl)-4-piperidin-1-yl-phenyl]-3-[4-(2-hydroxy-ethyl)-piperazin-1-ylmethyl]-benzamide], for which the IC50 stood at 2.24 µM.
As to `O=C(Nc1ccc(Br)cc1C(=O)N/N=C/c1cccc(F)c1)c1ccncc1` [Compound 166, N-[4-Bromo-2-(3-fluoro-benzylidene-hydrazinocarbonyl)-phenyl]-isonicotinamide], the IC50 turned out to be 27.9 µM.
On to `Cc1ccc(/C=N/NC(=O)c2ccccc2NC(=O)c2cccc(OC(F)(F)F)c2)cc1` [Compound 124], for which the IC50 came to 3.15 µM.
The same measure, in the same setting: as for `Cc1ccc(/C=N/NC(=O)c2cc(OCCCCF)ccc2NC(=O)c2cccc(CSCCO)c2)cc1C` [Compound 1053, N-[2-(3,4-Dimethyl-benzylidene-hydrazinocarbonyl)-4-(4-fluoro-butoxy)-phenyl]-3-(2-hydroxy-ethylsulfanylmethyl)-benzamide], the figure is below 1 µM.
On to `CCOCCN(CCOCC)Cc1ccc(C(=O)Nc2ccc(Br)cc2C(=O)N/N=C/c2ccc(C)c(C)c2)cc1` [Compound 733, 4-{[Bis-(2-ethoxy-ethyl)-amino]-methyl}-N-[4-bromo-2-(3,4-dimethyl-benzylidene-hydrazinocarbonyl)-phenyl]-benzamide], for which the IC50 is below 10 µM.
On to `COc1ccc(NC(=O)c2ccc(OC)c(OC)c2)c(C(=O)N/N=C/c2ccc(F)cc2)c1` [Compound 142, N-[2-(4-Fluoro-benzylidene-hydrazinocarbonyl)-4-methoxy-phenyl]-3,4-dimethoxy-benzamide], for which the IC50 amounted to 9.2 µM.

Staying with this assay, now noted: phosphate uptake, oocytes expressing rat NaPi-2b; 300 μM, determined from inhibition curve.
A word on the inhibition: it is the change of the read-out against control, counted positive when it falls. A higher inhibition goes with a response far below the control. Take `C/C(=N\NC(=O)c1ccccc1NC(=O)c1ccncc1)c1cccc(C)c1` [Compound 249, N-[2-(1-m-Toluyl-ethylidene-hydrazinocarbonyl)-phenyl]-isonicotinamide]: the inhibition at 300 µM is 41.6%.
In turn, `COc1ccc(C(=O)Nc2ccc(Cl)cc2C(=O)N/N=C/c2cccc(C)n2)cc1OC` [Compound 246, N-[4-Chloro-2-(6-methyl-pyridin-2-ylmethylene-hydrazinocarbonyl)-phenyl]-3,4-dimethoxy-benzamide] showed an inhibition at 300 µM of 32.6%.
